Assay results reported in patent EP4603105A1, “PHARMACEUTICAL COMPOSITION CONTAINING CYCLIC COMPOUND HAVING SELECTIVE KRAS INHIBITORY EFFECT AGAINST HRAS AND NRAS” (CHUGAI SEIYAKU KABUSHIKI KAISHA, priority 2022, dated 2024).
*1 amine or outer side, *2 acyl side, *3 side chain or, on linkers, in order; H or OH if unused. Where a SMILES comes first, the peptide text is derived from it. Bridges are numbered along the chain shown (N, C = ends). [ ]: non-standard residue; d: D form. The star is where a group is joined. hPhe(3,5-F2-4-CF3) = N[C@@H](CCc1cc(F)c(C(F)(F)F)c(F)c1)C(=O)O; hPhe(3-Cl-4-CF3) = N[C@@H](CCc1ccc(C(F)(F)F)c(Cl)c1)C(=O)O; NPrPhe(4-CF3) = CCCN[C@@H](Cc1ccc(C(F)(F)F)cc1)C(=O)O; X17 = CN([C@@H](CCCCC=[*:3])C(=O)[*:2])[*:1]; dαMeAlg = C[C@](CC=[*:3])(N[*:1])C(=O)[*:2]; NMeGly(cPent) = CN[C@H](C(=O)O)C1CCCC1; Hyp = O=C(O)[C@@H]1C[C@@H](O)CN1; NMeD = CN[C@@H](CC(=O)O)C(=O)O; NMeL = CN[C@@H](CC(C)C)C(=O)O; X10 = N#CCN(CC(=O)[*:2])[*:1]; Morpholide = C1CN(*)CCO1; Ac5c = NC1(C(=O)O)CCCC1; Aze = O=C(O)[C@@H]1CCN1; Ac3c = NC1(C(=O)O)CC1; Sar = CNCC(=O)O

How the values were obtained:
[1] = system: human lung cancer strain NCI-H441; format: cell-based
In short: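 Proliferation was scored by […] measured after the reagent was added to cultures kept at 37°C in 5% carbon dioxide.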

[2] = target: GDP-bound NRAS wild-type protein (Homo sapiens, UniProt P01111); test: Binding to NRAS by surface plasmon resonance (SPR), KD and KD ratio to KRAS
In short: (§1)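 Single-cycle kinetics on GDP-loaded biotin-Avi RAS captured to ~100–300 RU; 75 s ascending injections, 100 µL/min, 30°C. HBS pH 7.4 + 10 mM MgCl2/10 µM GDP/4% DMSO. 1:1 fit, KD.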

HRAS wild-type protein = HRAS wild-type protein (Homo sapiens, UniProt P01112); test: Binding to HRAS by surface plasmon resonance (SPR), KD and KD ratio to KRAS
In short: as §1

[3] = ratio of KD for GDP-bound NRAS wild-type protein to KD for KRAS
[4] = ratio of KD for HRAS wild-type protein to KD for KRAS
[5] = ratio of the KD value with respect to GDP-bound NRAS wild-type protein to the KD value with respect to KRAS
[6] = ratio of the KD value with respect to HRAS wild-type protein to the KD value with respect to KRAS

Chain of HRAS wild-type protein (P01112 whole entry): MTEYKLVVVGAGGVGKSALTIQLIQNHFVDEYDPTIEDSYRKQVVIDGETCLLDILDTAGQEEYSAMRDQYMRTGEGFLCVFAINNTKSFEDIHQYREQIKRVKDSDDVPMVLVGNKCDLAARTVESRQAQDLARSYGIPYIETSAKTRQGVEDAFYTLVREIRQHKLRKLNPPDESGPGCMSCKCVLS
Chain of GDP-bound NRAS wild-type protein (P01111 whole entry): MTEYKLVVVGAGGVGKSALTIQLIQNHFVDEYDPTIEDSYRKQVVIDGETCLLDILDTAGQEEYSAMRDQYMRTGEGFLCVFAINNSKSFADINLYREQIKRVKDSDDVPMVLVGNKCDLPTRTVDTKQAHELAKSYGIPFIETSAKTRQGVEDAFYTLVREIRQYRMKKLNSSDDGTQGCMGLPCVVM

Row | SMILES | IC50 [1] [nM] | NRAS /KRAS [2, 3] | HRAS /KRAS (HRAS wild-type protein; [4]) | NRAS /KRAS [2, 5] | HRAS /KRAS (HRAS wild-type protein; [6])
1 | CCCN1C(=O)[C@@H]2CCN2C(=O)CN(CC#N)C(=O)[C@H]([C@@H](C)CC)NC(=O)[C@H](CC(C)C)N(C)C(=O)C[C@@H](C(=O)N2CCOCC2)N(C)C(=O)[C@H](C2CCCC2)N(C)C(=O)C2(CCCC2)NC(=O)[C@@H]2CCCN2C(=O)[C@H](CCc2ccc(C(F)(F)F)c(Cl)c2)NC(=O)CN(C)C(=O)[C@@H]1Cc1ccc(C(F)(F)F)cc1 [PP0275] ([NMeL]I[X10][Aze][NPrPhe(4-CF3)][Sar][hPhe(3-Cl-4-CF3)]P[Ac5c][NMeGly(cPent)][NMeD]-Morpholide; lactam N-11) | 9.3 | C (A compound having a KD ratio of 0.1 or more and less than 3 is denoted as C) | C (A compound having a KD ratio of 0.1 or more and less than 3 is denoted as C) | – | –
2 | CCCN(C)C(=O)[C@@H]1CC(=O)N(C)[C@@H](C2CC2)C(=O)N[C@@H]([C@@H](C)CC)C(=O)N(C)CC(=O)N(C)[C@H]2C/C=C\CCN(C2=O)[C@@H](Cc2ccc(C(F)(F)F)cc2)C(=O)N(C)CC(=O)N[C@@H](CCc2cc(F)c(C(F)(F)F)c(F)c2)C(=O)N2C[C@@H](C)C[C@H]2C(=O)NC2(CCC2)C(=O)N(C)[C@@H](C2CCCC2)C(=O)N1C [PP2081] | 11.2 | – | – | A (a compound having 10 or more and less than 20 is denoted as A) | A (a compound having 10 or more and less than 20 is denoted as A)
3 | CC[C@H](C)[C@@H]1NC(=O)[C@H](COC)N(C)C(=O)C[C@@H](C(=O)N2CCOCC2)N(C)C(=O)[C@H](C2CCCC2)N(C)C(=O)C2(CCCC2)NC(=O)[C@@H]2CCCN2C(=O)[C@H](CCc2cc(F)c(C(F)(F)F)c(F)c2)NC(=O)CN(C)C(=O)[C@H](Cc2ccc(C(F)(F)F)cc2)N2CCCCC[C@@H](C2=O)N(C)C(=O)CN(C)C1=O [PP0845] | 135 | B (a compound having 3 or more and less than 10 is denoted as B) | B (a compound having 3 or more and less than 10 is denoted as B) | – | –
4 | CCCN1C(=O)CN(C)C(=O)CN(C)C(=O)[C@H]([C@@H](C)CC)NC(=O)[C@H](CC(C)C)N(C)C(=O)C[C@@H](C(=O)N2CCOCC2)N(C)C(=O)[C@H](C2CCCC2)N(C)C(=O)C2(CC2)NC(=O)[C@@H]2CCCN2C(=O)[C@H](CCc2ccc(C(F)(F)F)c(Cl)c2)NC(=O)CN(C)C(=O)[C@@H]1Cc1ccc(C(F)(F)F)cc1 [PP0229] ([NMeL]I[Sar][Sar][NPrPhe(4-CF3)][Sar][hPhe(3-Cl-4-CF3)]P[Ac3c][NMeGly(cPent)][NMeD]-Morpholide; lactam N-11) | 24.7 | B (a compound having 3 or more and less than 10 is denoted as B) | B (a compound having 3 or more and less than 10 is denoted as B) | – | –
5 | CC[C@H](C)[C@@H]1NC(=O)[C@H](CC(C)C)N(C)C(=O)C[C@@H](C(=O)N(C)C)N(C)C(=O)[C@H](C2CCCC2)N(C)C(=O)C2(CCC2)NC(=O)[C@@H]2CCCN2C(=O)[C@H](CCc2cc(F)c(C(F)(F)F)c(F)c2)NC(=O)CN(C)C(=O)[C@H](Cc2ccc(C(F)(F)F)cc2)N2CCCC[C@@H](C2=O)N(C)C(=O)CN(C)C1=O [PP0574] | 3.1 | – | – | C (A compound having a KD ratio of 0.1 or more and less than 3 is denoted as C) | B (a compound having 3 or more and less than 10 is denoted as B)
6 | CCO[C@@H]1C[C@H]2C(=O)NC3(CCC3)C(=O)N(C)[C@@H](C3CCCC3)C(=O)N(C)[C@H](C(=O)N(C)C)CC(=O)N(C)[C@@H](CC)C(=O)N[C@@H]([C@@H](C)CC)C(=O)NCC(=O)N(C)[C@H]3C/C=C\CCN(C3=O)[C@@H](Cc3ccc(C(F)(F)F)cc3)C(=O)N(C)CC(=O)N[C@@H](CCc3cc(F)c(C(F)(F)F)c(F)c3)C(=O)N2C1 [PP0983] | 19.5 | A (a compound having 10 or more and less than 20 is denoted as A) | A (a compound having 10 or more and less than 20 is denoted as A) | – | –
7 | CC[C@H](C)[C@@H]1NC(=O)[C@H](COC)N(C)C(=O)C[C@@H](C(=O)N2CCOCC2)N(C)C(=O)[C@H](C2CCCC2)N(C)C(=O)C2(CCCC2)NC(=O)[C@@H]2C[C@H](O)CN2C(=O)[C@H](CCc2cc(F)c(C(F)(F)F)c(F)c2)NC(=O)CN(C)C(=O)[C@H](Cc2ccc(C(F)(F)F)cc2)N2CCCCC[C@@H](C2=O)N(C)C(=O)CN(C)C1=O [PP0847] | 136 | B (a compound having 3 or more and less than 10 is denoted as B) | B (a compound having 3 or more and less than 10 is denoted as B) | – | –
8 | CCCN1C(=O)CN(C)C(=O)CN(C)C(=O)[C@H]([C@@H](C)CC)NC(=O)[C@@H]2CCCCC=CC[C@@](C)(NC(=O)[C@@H]3C[C@@H](OCC)CN3C(=O)[C@H](CCc3cc(F)c(C(F)(F)F)c(F)c3)NC(=O)CN(C)C(=O)[C@@H]1Cc1ccc(C(F)(F)F)cc1)C(=O)N(C)[C@@H](C1CCCC1)C(=O)N(C)[C@H](C(=O)N1CCOCC1)CC(=O)N2C [PP0902] ([X17]I[Sar][Sar][NPrPhe(4-CF3)][Sar][hPhe(3,5-F2-4-CF3)][Hyp](Et)[dαMeAlg][NMeGly(cPent)][NMeD]-Morpholide; staple 1-9; lactam N-11) | 72.6 | A (a compound having 10 or more and less than 20 is denoted as A) | B (a compound having 3 or more and less than 10 is denoted as B) | – | –
9 | CCOC[C@H]1C(=O)N[C@@H]([C@@H](C)CC)C(=O)N(C)CC(=O)N(C)[C@H]2C/C=C\CCN(C2=O)[C@@H](Cc2ccc(C(F)(F)F)cc2)C(=O)N(C)CC(=O)N[C@@H](CCc2ccc(C(F)(F)F)c(OC)c2)C(=O)N2C[C@@H](C)C[C@H]2C(=O)NC2(CCC2)C(=O)N(C)[C@@H](C2CCCC2)C(=O)N(C)[C@H](C(=O)N(C)CC)CC(=O)N1C [PP2026] | 22.6 | – | – | A (a compound having 10 or more and less than 20 is denoted as A) | A (a compound having 10 or more and less than 20 is denoted as A)
10 | CCC[C@H]1C(=O)N[C@@H]([C@@H](C)CC)C(=O)N(C)CC(=O)N(C)[C@H]2C/C=C\CCN(C2=O)[C@@H](Cc2ccc(C(F)(F)F)cc2)C(=O)N(C)CC(=O)N[C@@H](CCc2ccc(CC)c(Cl)c2)C(=O)N2C[C@H](OCC)C[C@H]2C(=O)NC2(CC(C)(C)C2)C(=O)N(C)[C@@H](C2CCCC2)C(=O)N(C)[C@H](C(=O)N(C)C)CC(=O)N1C [PP2848] | 28.9 | A (a compound having 10 or more and less than 20 is denoted as A) | A (a compound having 10 or more and less than 20 is denoted as A) | – | –
11 | CC[C@H](C)[C@@H]1NC(=O)[C@H](C2CCC2)N(C)C(=O)C[C@@H](C(=O)N(C)CC)N(C)C(=O)[C@H](C2CCCC2)N(C)C(=O)C2(CC(C)(C)C2)NC(=O)[C@@H]2C[C@H](C)CN2C(=O)[C@H](CCc2cc(F)c(C(F)(F)F)c(F)c2)NC(=O)CN(C)C(=O)[C@H](Cc2ccc(C(F)(F)F)cc2)N2CC/C=C\C[C@@H](C2=O)N(C)C(=O)CN(C)C1=O [PP1984] | 50.8 | – | – | A (a compound having 10 or more and less than 20 is denoted as A) | A (a compound having 10 or more and less than 20 is denoted as A)
